{"source": "patent US20220282271A1", "about": "“HERBICIDE RESISTANT PLANTS AND METHODS OF MAKING AND USING” (OFFICE OF INNOVATION ADVANCEMENT AND COMMERCIALIZATION, priority 2019, published 2022)", "key": {"[1]": {"test_system": "Abutilon theophrasti", "test": "Weed control screen: velvetleaf", "format": "in vivo", "conditions": "1.0 lb ai/a, applied approximately 3 weeks after emergence, relative to non-treated", "procedure": "(§1) Herbicides were applied at a spray volume of 280 L/ha with no adjuvant added to any herbicide mixture. Weed control was rated on a 0 to 100 percent phytoxicity scale with 0 being no plant injury/phytotoxicity and 100 being complete plant dessication. Twenty-one weeds were evaluated for response to herbicides (Table 3). The weeds selected were a mixture of weeds common in agronomic and horticultural crops. Herbicide was applied to all species approximately 3 weeks after emergence. Plant phytotoxicity rated as percent control relative to the non-treated."}, "[2]": {"test_system": "Solanum carolinense", "test": "Weed control screen: Carolina horsenettle", "format": "in vivo", "conditions": "1.0 lb ai/a, applied approximately 3 weeks after emergence, relative to non-treated", "procedure": "as §1"}, "[3]": {"test_system": "Senna obtusifolia", "test": "Weed control screen: sicklepod", "format": "in vivo", "conditions": "1.0 lb ai/a, applied approximately 3 weeks after emergence, relative to non-treated", "procedure": "as §1"}, "[4]": {"test_system": "Conyza candensis", "test": "Weed control screen: glyphosate-resistant horseweed", "format": "in vivo", "conditions": "1.0 lb ai/a, applied approximately 3 weeks after emergence, relative to non-treated", "procedure": "as §1"}, "[5]": {"test_system": "PPO1 from R1 and R2 E. indica biotypes (A212T) expressed in hemG mutant E. coli strain SASX38", "test": "hemG mutant E. coli SASX38 complementation assay, R1 and R2 PPO1", "format": "cell-based, Eleusine indica", "conditions": "R1 and R2 alleles; LB medium; 0, 10, 50, 100, 200 μM tested; 37° C., 20 h", "from_the_text": "Two putative PPO-inhibitor resistant (R-) and susceptible (S-) plasmids were created to test the role of the chloroplast-targeted PPO1 in the E. indica biotypes. The PPO1 from R1, R2 and S E. indica biotypes were cloned into the pBAD-TOPO expression vector using the pBAD TOPO™ TA Expression kit (Invitrogen, Carlsbad, Calif.), respectively. The PPO1 product was amplified using the same PCR primers and PCR reaction system as cDNA sequencing, so that the PPO1 translation began at the ATG start codon. Three different pBAD-TOPO PPO1 constructs were created and sequenced to confirm they were identical with the PPO1 gene from R1, R2 and S E. indica biotypes and there were no other nucleotide polymorphisms in the cloning experiment. R- and S-PPO1 plasmids were used to transform a hemG mutant Escherichia coli strain SASX38 by electroporation. The SASX38 mutant strain was grown on LB medium supplemented with 10 μg/mL hematin. Expression of the PPO1 in the transformed colonies of the SASX38 mutant strain were induced on LB medium with 2% L-arabinose. […]"}, "[6]": {"test_system": "Ipomoea quamoclit", "test": "Weed control screen: cypressvine morningglory", "format": "in vivo", "conditions": "1.0 lb ai/a, applied approximately 3 weeks after emergence, relative to non-treated", "procedure": "as §1"}, "[7]": {"test_system": "Eleusine indica biotypes (S, R1, R2)", "test": "Herbicide rate screening assay (greenhouse, foliar-applied, visual injury)", "format": "in vivo", "conditions": "for I50, estimated rate required to reduce Eleusine indica biotype by 50% (Visual Control/Injury) / I90, estimated rate required to reduce Eleusine indica biotype by 90% (Visual Control/Injury): injury scores 14 days after treatment; for Parameter estimate a of sigmoidal model y = a/(1 + exp(−(x − x0)/b)) for percent injury / Parameter estimate b of sigmoidal model y = a/(1 + exp(−(x − x0)/b)) for percent injury / Parameter estimate x0 of sigmoidal model y = a/(1 + exp(−(x − x0)/b)) for percent injury: x = log-transformed herbicide rate (kg/ha), 14 DAT; for Control at labelled rate application: oxadiazon 2.24 kg/ha", "from_the_text": "Three E. indica biotypes from different locations were used in this study. The R1 biotype was collected in Country Club of Virginia, Richmond, Va., and the R2 biotype was from River Bend Golf, New Bern, N.C. These two biotypes were previous confirmed resistant to preemergence application of oxadiazon, but have not been screened to other PPO inhibitors. The S biotype was collected from the Alabama Agricultural Experiment Station, Plant Breeding Unit, Tallassee, Ala., which was confirmed susceptible to PPO inhibitors. Seeds of the mature plants were harvested, air dried and stored in the 4° C. freezer until planted in the greenhouse.\nGreenhouse conditions were 30±3° C. at day/night temperature and ˜70% average relative humidity. The E. indica seeds were placed on the soil surface and lightly covered with sand in 28 cm*20 cm flats and watered as needed daily to ensure germination. Two weeks after emergence, seedlings were separated and transplanted to in individual 10-cm pots (volumes=0.5 L). Pots were filled with surface horizon of Marvyn sandy loam (fine-loamy, kaolinitic, thermic Typic Kanhapludults) soil with pH 6.4 and 1.2% organic matter. The plants were irrigated three times daily for 2 min with overhead irrigation and fertilized once at one week after transplanting at approximately 50 kg N ha^−1 with Scott's Miracle-Gro All-Purpose fertilizer (The Scotts Miracle-Gro Co. Marysville, Ohio). Plants were 5-10 cm in height with 3-5 tillers in size at the time of herbicide treatment.\nHerbicide treatments were foliar-applied at 280 L/ha using an enclosed spray chamber with a single 8002E nozzle (TeeJet Spray Systems Co, Wheaton, Ill.) at 32 PSI. Four herbicides were selected for the experiment: oxadiazon (Ronstar FLO, Bayer Environmental Sci., Research Triangle Park, N.C.), sulfentrazone (Dismiss, FMC Corporation, Philadelphia, Pa.), flumioxazin (Sureguard, Valent Corp., Walnut Creek, Calif.) and lactofen (Cobra, Valent Corp., Walnut Creek, Calif.). All the herbicides are from different herbicide chemical families of PPO inhibitors: oxadiazoles, triazolinone, N-phenylphthalimide and diphenyl ether, respectively. Herbicides were applied at 7 different rates based on each herbicide label rate: oxadiazon ranging from 0.14 to 8.96 kg/ha, sulfentrazone from 0.07 to 4.50 kg/ha, flumioxazin from 0.08 to 5.70 kg/ha, and lactofen from 0.029 to 1.75 kg/ha. A non-treated control (0 kg/ha) was included. 192 plants of each biotype were tested and experiments were conducted as completely random design, three replications for two runs.\nThe visual injury rating scores per plant at 14 days after treatment (DAT) were recorded, where the visual injury rating scores were based on a 0 to 100 scale, which 0 is equated to no phytotoxicity and 100 is equated to complete control. Data subjected to ANOVA analysis at a significance level of P<0.05 using the PROC GLM procedure of SAS 9.4 (SAS Institute Inc., Cary, N.C.). All the herbicide rates were log transformed to make equal spacing between the herbicide treatments in order to facilitate regression analysis. The non-treated control was transformed to equal spacing based on the log rates of each herbicide, respectively. Data were fitted to a sigmoidal model using SigmaPlot 10.2 (Systat Software Inc., London, UK) using a sigmoidal function (Equation 1).\ny=a/(1+e^(−((x−x0)/b))) (1)\nIn this fit sigmoidal model, where y represents E. indica visual damage relative to non-treated control (%), x represents the log-transformed herbicide rates (kg/ha), three parameters (a, b, x0) represents the y intercept."}, "[8]": {"test_system": "Murdannia nudiflora", "test": "Weed control screen: doveweed", "format": "in vivo", "conditions": "1.0 lb ai/a, applied approximately 3 weeks after emergence, relative to non-treated", "procedure": "as §1"}}}
{"smiles": "CC(C)Oc1cc(-n2nc(C(C)(C)C)oc2=O)c(Cl)cc1Cl", "note": "[Oxadiazon, oxadiazon]", "values": [{"measurement": "Percent control (0 to 100)", "setting": "[1]", "result": 100, "unit": "%"}, {"measurement": "Percent control (0 to 100)", "setting": "[2]", "result": 60, "unit": "%"}, {"measurement": "Percent control (0 to 100)", "setting": "[3]", "result": 90, "unit": "%"}, {"measurement": "Percent control (0 to 100)", "setting": "[4]", "result": 30, "unit": "%"}, {"measurement": "Concentration at which the transformed E. coli were able to grow", "setting": "[5]", "result": "up to 200 μM"}, {"measurement": "Percent control (0 to 100)", "setting": "[6]", "result": 100, "unit": "%"}, {"measurement": "Increased resistance of oxadiazon resistant biotypes than the susceptible biotype", "setting": "[7]; R1 and R2 vs S biotype, post-emergence applied", "result": "up to 20 fold"}, {"measurement": "I50, estimated rate required to reduce Eleusine indica biotype by 50% (Visual Control/Injury)", "setting": "[7]; R1 biotype", "result": 8.15, "unit": "kg ha^−1"}, {"measurement": "I90, estimated rate required to reduce Eleusine indica biotype by 90% (Visual Control/Injury)", "setting": "[7]; R1 biotype", "result": 14.60, "unit": "kg ha^−1"}, {"measurement": "Parameter estimate a of sigmoidal model y = a/(1 + exp(−(x − x0)/b)) for percent injury", "setting": "[7]; R1 biotype", "result": 9925.40}, {"measurement": "Parameter estimate b of sigmoidal model y = a/(1 + exp(−(x − x0)/b)) for percent injury", "setting": "[7]; R1 biotype", "result": 0.53}, {"measurement": "Parameter estimate x0 of sigmoidal model y = a/(1 + exp(−(x − x0)/b)) for percent injury", "setting": "[7]; R1 biotype", "result": 3.75}, {"measurement": "I50, estimated rate required to reduce Eleusine indica biotype by 50% (Visual Control/Injury)", "setting": "[7]; R2 biotype", "result": 8.88, "unit": "kg ha^−1"}, {"measurement": "I90, estimated rate required to reduce Eleusine indica biotype by 90% (Visual Control/Injury)", "setting": "[7]; R2 biotype", "result": 18.29, "unit": "kg ha^−1"}, {"measurement": "Parameter estimate a of sigmoidal model y = a/(1 + exp(−(x − x0)/b)) for percent injury", "setting": "[7]; R2 biotype", "result": 64371.40}, {"measurement": "Parameter estimate b of sigmoidal model y = a/(1 + exp(−(x − x0)/b)) for percent injury", "setting": "[7]; R2 biotype", "result": 0.43}, {"measurement": "Parameter estimate x0 of sigmoidal model y = a/(1 + exp(−(x − x0)/b)) for percent injury", "setting": "[7]; R2 biotype", "result": 3.99}, {"measurement": "I50, estimated rate required to reduce Eleusine indica biotype by 50% (Visual Control/Injury)", "setting": "[7]; S biotype", "result": 0.32, "unit": "kg ha^−1"}, {"measurement": "I90, estimated rate required to reduce Eleusine indica biotype by 90% (Visual Control/Injury)", "setting": "[7]; S biotype", "result": 1.56, "unit": "kg ha^−1"}, {"measurement": "Control at labelled rate application", "setting": "[7]; S biotype", "result": "> 80", "unit": "%"}, {"measurement": "Parameter estimate a of sigmoidal model y = a/(1 + exp(−(x − x0)/b)) for percent injury", "setting": "[7]; S biotype", "result": 91.25}, {"measurement": "Parameter estimate b of sigmoidal model y = a/(1 + exp(−(x − x0)/b)) for percent injury", "setting": "[7]; S biotype", "result": 0.25}, {"measurement": "Parameter estimate x0 of sigmoidal model y = a/(1 + exp(−(x − x0)/b)) for percent injury", "setting": "[7]; S biotype", "result": "−0.54"}, {"measurement": "Control at labelled rate application", "setting": "[7]; resistant biotypes (R1 and R2), flumioxazin 0.357 kg/ha, sulfentrazone 0.28 kg/ha, lactofen 0.22 kg/ha", "result": "< 20", "unit": "%"}, {"measurement": "Control at labelled rate application", "setting": "[7]; resistant biotypes (R1 and R2), flumioxazin 0.357 kg/ha, sulfentrazone 0.28 kg/ha, lactofen 0.22 kg/ha, listed as oxadiazon", "result": "less than 10%"}, {"measurement": "Percent control (0 to 100)", "setting": "[8]", "result": 0, "unit": "%"}]}
